Tests used:
[1] = test system: HL60 (Human promyelocytic leukemia cells); experiment: MTT cell proliferation assay in HL60 cell line; assay type: cell-based; conditions: HL-60, treated 72 hr or 96 hr
Method: (§1) Exemplary assays include MTT cell proliferation assay in A549 (Human lung adenocarcinoma epithelial cell line), and HL60 (Human promyelocytic leukemia cells) cell lines. Suitable cells include those derived through cell culture from patient samples (cancer cell lines) as well as cells derived using routine molecular biology techniques, e.g., retroviral transduction, transfection, mutagenesis, etc.
(§2) In an exemplary MTT assay, approximately 1,000 cells (A549 or HL60) are plated into each well of a 96-well plate. Cells are treated in duplicate with test compounds in a dose titration manner, typically 3-fold dilutions, eleven points per assay, with starting concentrations of 20 or 10 μM) or with DMSO-control (0.2% final concentration). Cells are treated for 72 hours (hr) or 96 hr before being analyzed by the MTT method. After 72 hr or 96 hr of compound treatment, 10 μL of MTT dye solution (5 mg/mL MTT dye [Sigma #M2128] in water) is added to each well and incubated at 37° C. for 2 hr. Following incubation, 100 μL of lysis buffer (10% SDS, 0.01 N HCl in water) is added to each well and incubated overnight at 37° C. The plate is analyzed the following day using a colorimetric plate reader at 595 nm wavelength. Values obtained for treatment samples are normalized to control samples.

[2] = test system: A549 (Human lung adenocarcinoma epithelial cell line); experiment: MTT cell proliferation assay in A549 cell line; assay type: cell-based; conditions: A549 cells, treated 72 hr or 96 hr
Method: as §1, §2

| SMILES | IC50 [1] [µM] | IC50 [2] [µM] |
| --- | --- | --- |
| O=c1c(S(=O)(=O)N2CCCCC2)cn(-c2nccs2)c2nc(N3CCN(c4cccnc4)CC3)ccc12 | 3 to 10 | < 3 |
| O=c1c(S(=O)(=O)N2CCCCC2)cn(-c2nccs2)c2nc(N3CCN(C4CCCCC4)CC3)ccc12 | < 3 | < 3 |
| C[C@@H]1CN(c2ccc3c(=O)c(S(=O)(=O)N4CCCCC4)cn(-c4nccs4)c3n2)CCN1 | < 3 | < 3 |
| O=c1c(S(=O)(=O)N2CCCCC2)cn(-c2nccs2)c2nc(N3CCC(O)C3)ccc12 (centres unmarked) | > 10 | < 3 |
| O=c1c(S(=O)(=O)N2CCCCC2)cn(-c2nccs2)c2nc(N3CCOCC3)ccc12 | > 10 | 3 to 10 |
| O=c1c(S(=O)(=O)N2CCCCC2)cn(-c2nccs2)c2nc(N3CCCC3)ccc12 | > 10 | < 3 |
| CN(C)S(=O)(=O)c1cn(-c2nccs2)c2nc(N3CCN(c4ccccn4)CC3)ccc2c1=O | > 10 | > 10 |
| COC[C@@H]1CCCN1c1ccc2c(=O)c(S(=O)(=O)N(C)C)cn(-c3nccs3)c2n1 | > 10 | > 10 |
| CN(C)S(=O)(=O)c1cn(-c2nccs2)c2nc(N3CCNCC3)ccc2c1=O | 3 to 10 | 3 to 10 |
| CN[C@H]1CN(c2cnc3c(=O)c(C(=O)O)cn(-c4nccs4)c3n2)C[C@@H]1OC | > 10 | > 10 |
| CN(C)[C@@H]1CCN(c2cnc3c(=O)c(C(=O)O)cn(-c4nccs4)c3n2)C1 | > 10 | > 10 |
| O=C(O)c1cn(-c2nccs2)c2nc(N3CCC(O)C3)cnc2c1=O (centres unmarked) | > 10 | > 10 |
| CCN(CC)C1CCN(c2cnc3c(=O)c(C(=O)O)cn(-c4nccs4)c3n2)C1 (centres unmarked) | > 10 | > 10 |
| O=C(O)c1cn(-c2nccs2)c2nc(N3CCCC3)cnc2c1=O | 3 to 10 | 3 to 10 |
| COC[C@H]1CCCN1c1cnc2c(=O)c(C(=O)O)cn(-c3nccs3)c2n1 | > 10 | > 10 |
| CN1CCN(c2cnc3c(=O)c(C(=O)O)cn(-c4nccs4)c3n2)CC1 | > 10 | > 10 |
| O=C(O)c1cn(-c2nccs2)c2nc(N3CCN(C4CCCCC4)CC3)cnc2c1=O | > 10 | > 10 |
| O=C(O)c1cn(-c2nccs2)c2nc(N3CCNCC3)cnc2c1=O | > 10 | > 10 |
| O=C(O)c1cn(-c2nccs2)c2nc(N3CCOCC3)cnc2c1=O | > 10 | > 10 |
| CC(C)(C)OC(=O)N1CCN(c2cnc3c(=O)c(C(=O)O)cn(-c4nccs4)c3n2)CC1 | > 10 | > 10 |

The remaining lines, values ahead:

| IC50 [1] [µM] | IC50 [2] [µM] | SMILES |
| --- | --- | --- |
| < 3 | < 3 | CN[C@H]1CN(c2ccc3c(=O)c(S(=O)(=O)N4CCCCC4)cn(-c4nccs4)c3n2)C[C@@H]1OC |
| – | < 3 | O=c1c(S(=O)(=O)N2CCCCC2)cn(-c2nccs2)c2nc(N3CCN(c4ccc(C(F)(F)F)cc4)CC3)ccc12 |
| < 3 | < 3 | C[C@@H]1CN(c2ccc3c(=O)c(S(=O)(=O)N4CCCCC4)cn(-c4nccs4)c3n2)C[C@H](C)N1 |
| < 3 | < 3 | CN(C)[C@@H]1CCN(c2ccc3c(=O)c(S(=O)(=O)N4CCCCC4)cn(-c4nccs4)c3n2)C1 |
| < 3 | < 3 | O=c1c(S(=O)(=O)N2CCCCC2)cn(-c2nccs2)c2nc(N3CCC(N4CCCC4)CC3)ccc12 |
| > 10 | 3 to 10 | COC[C@@H]1CCCN1c1ccc2c(=O)c(S(=O)(=O)N3CCCCC3)cn(-c3nccs3)c2n1 |
| > 10 | 3 to 10 | COC[C@H]1CCCN1c1ccc2c(=O)c(S(=O)(=O)N3CCCCC3)cn(-c3nccs3)c2n1 |
| < 3 | < 3 | N[C@@H]1CCN(c2ccc3c(=O)c(S(=O)(=O)N4CCCCC4)cn(-c4nccs4)c3n2)C1 |
| < 3 | < 3 | CCN(CC)C1CCN(c2ccc3c(=O)c(S(=O)(=O)N4CCCCC4)cn(-c4nccs4)c3n2)C1 (centres unmarked) |
| > 10 | < 3 | CN1CCN(c2ccc3c(=O)c(S(=O)(=O)N4CCCCC4)cn(-c4nccs4)c3n2)CC1 |
| < 3 | < 3 | O=c1c(S(=O)(=O)N2CCCCC2)cn(-c2nccs2)c2nc(N3CCNCC3)ccc12 |
| < 3 | < 3 | CN[C@H]1CN(c2ccc3c(=O)c(S(=O)(=O)N(C)C)cn(-c4nccs4)c3n2)C[C@@H]1OC |
| 3 to 10 | < 3 | CN(C)S(=O)(=O)c1cn(-c2nccs2)c2nc(N3CCN(C4CCCCC4)CC3)ccc2c1=O |
| > 10 | 3 to 10 | C[C@@H]1CN(c2ccc3c(=O)c(S(=O)(=O)N(C)C)cn(-c4nccs4)c3n2)CCN1 |
| 3 to 10 | 3 to 10 | C[C@@H]1CN(c2ccc3c(=O)c(S(=O)(=O)N(C)C)cn(-c4nccs4)c3n2)C[C@H](C)N1 |
| 3 to 10 | < 3 | CN(C)[C@@H]1CCN(c2ccc3c(=O)c(S(=O)(=O)N(C)C)cn(-c4nccs4)c3n2)C1 |
| 3 to 10 | 3 to 10 | CN(C)S(=O)(=O)c1cn(-c2nccs2)c2nc(N3CCC(N4CCCC4)CC3)ccc2c1=O |
| < 3 | < 3 | CN(C)S(=O)(=O)c1cn(-c2nccs2)c2nc(N3CC[C@@H](N)C3)ccc2c1=O |
| > 10 | > 10 | CN(C)S(=O)(=O)c1cn(-c2nccs2)c2nc(N3CCOCC3)ccc2c1=O |
| > 10 | < 3 | CN(C)S(=O)(=O)c1cn(-c2nccs2)c2nc(N3CCCC3)ccc2c1=O |
| > 10 | > 10 | N[C@@H]1CCN(c2cnc3c(=O)c(C(=O)O)cn(-c4nccs4)c3n2)C1 |
| > 10 | > 10 | COC1CCN(c2cnc3c(=O)c(C(=O)O)cn(-c4nccs4)c3n2)C1 (centres unmarked) |
| > 10 | 3 to 10 | CC1CCCN1c1cnc2c(=O)c(C(=O)O)cn(-c3nccs3)c2n1 (centres unmarked) |
| > 10 | > 10 | COC[C@@H]1CCCN1c1cnc2c(=O)c(C(=O)O)cn(-c3nccs3)c2n1 |
| > 10 | > 10 | CCN1CCN(c2cnc3c(=O)c(C(=O)O)cn(-c4nccs4)c3n2)CC1 |
| > 10 | > 10 | C[C@@H]1CN(c2cnc3c(=O)c(C(=O)O)cn(-c4nccs4)c3n2)C[C@H](C)N1 |
| > 10 | > 10 | C[C@@H]1CN(c2cnc3c(=O)c(C(=O)O)cn(-c4nccs4)c3n2)CCN1 |
| > 10 | > 10 | O=C(O)c1cn(-c2nccs2)c2nc(N3CCN(c4ccccn4)CC3)cnc2c1=O |

Reference: patent US8470817B2, “Compounds and methods for treatment of cancer” (Sunesis Pharmaceuticals, Inc., priority 2009, dated 2013)
